System: Mino cells
Experiment: Competitive pull-down proteomics with ibrutinib alkyne probe in Mino cells
Format: cell-based, human
Details: 1 µM compound 1 h
Experimental: (10 μM). This was followed by a reaction with biotin-azide using CuAAC, enrichment of the labeled proteins, and their quantification by tryptic digestion and LC/MS/MS analysis.
The samples were then precipitated with methanol: chloroform (1 mL of methanol, 250 μL of chloroform, and 750 μL of water), washed with 1 mL of methanol, and air-dried. The samples were solubilized and bound to streptavidin agarose beads in PBS for 3 h at 25 °C. The beads were washed, centrifuged, and resuspended in Tris 50 mM pH 8 and transferred to a clean Eppendorf tube. After this, the bound proteins were eluted by boiling with 5% SDS then reduced with DTT, alkylated with iodoacetamide, and digested with trypsin. The samples were run on LC/MS/MS. The detailed procedure is available in the Supplementary Information. The mass spectrometry proteomics data have been deposited to the ProteomeXchange Consortium via the PRIDE[67] partner repository with the dataset identifiers PXD038301 and PXD038375.
400 µL of 0.1% IGEPAL/PBS were added, and the beads were washed 3 times with 0.1% IGEPAL/PBS, 3 times PBS and 3 times water. The peptides were eluted by incubation with 200 µL of 50% acetonitrile + 0.1% TFA for 5 min, followed by two more portions of 100 µL of 50% acetonitrile + 0.1% TFA. The samples were dried by speedvac, and further purified using Oasis desalting columns (Waters), after which they were dried and run on the instrument.
Pull-down samples preparation […]
incubation with 10 μM “probe 4” for another hour. The samples were prepared in quadruplicates. The cells were washed with cold PBS, from the flasks and frozen. Then, each sample was lysed in 200 μL of […]
The protein in the supernatant was quantified using BCA. For each sample, 250 μL of 1.7 mg/mL was prepared. At this point, 5 μL of 5 mM biotin azide and 9 μL of 100 mM CuSO4/THPTA complex were added. The click reaction was initiated by the addition of 7.5 μL of 150 mM sodium ascorbate, and the samples are incubated at room temperature for 1 h. The samples were then precipitated with methanol/chloroform (1 mL methanol, 250 μL chloroform, 750 μL water), washed with 1 mL of methanol, and air-dried. […]
and heated to 95 °C for 5 min. The samples were then diluted to 1.5 mL with PBS, and 50 μL of streptavidin agarose beads, prewashed with 0.2% SDS in PBS, was added, followed by 3 h incubation at room temperature. Following the incubation, the beads were centrifuged at 2000g for 2 min and washed four times with the following buffers (4 mL in each wash): 2% SDS; 0.1% sodium deoxycholate, 1% Triton X-100, 0.5 M NaCl, 1 mM EDTA, 50 mM HEPES pH = 7.5; 0.25 M NaCl, 0.5% IGEPAL, 0.5% sodium deoxycholate, 1 mM EDTA, 10 mM Tris pH = 8.1; 50 mM Tris pH = 7.4, 50 mM NaCl. […]
with heating to 95 °C for 6 min and occasional vortexing. Finally, the beads were spun down (2 min 2000g) and 80 μL of supernatant was removed to separate tubes. […]
had cooled, 4 μL of iodoacetamide (0.2 M) were added, and the samples were incubated in the dark for 40 min at room temperature. […]
samples were diluted 6-fold with 90% methanol + 50 mM ammonium bicarbonate. The samples were then […]
loaded on S-trap micro columns (Protify), and the columns were washed three times with 150 μL of 90% methanol + 50 mM ammonium bicarbonate. Then, 20 μL of 0.05 μg/μL of trypsin in 50 mM ammonium bicarbonate was added to the columns and the samples were incubated at 47 °C for 90 min. Then, 40 μL of 50 mM ammonium bicarbonate was added, followed by centrifugation and addition of 1 μL of 0.5 μg/μL trypsin to the eluate, which was incubated at 37 °C overnight. The column itself was then eluted using 40 μL of 0.2% formic acid and 40 μL 0.2% formic acid in 50% acetonitrile into a separate tube, which was kept at 4 °C. The two eluates were then combined and evaporated. The samples were further desalted using […]

Question: What does the source list for `CNS(=O)(=O)OCC(=O)N1CCC[C@@H](n2nc(-c3ccc(Oc4ccccc4)cc3)c3c(N)ncnc32)C1` [3c]?
Answer: Log2(Fold Change) (4F2_HUMAN): -0.003946; Log2(Fold Change) (AATM_HUMAN): 0.8443; Log2(Fold Change) (ACSF3_HUMAN): -0.02243; Log2(Fold Change) (AHNK_HUMAN): 0.1794; Log2(Fold Change) (ALG1_HUMAN): 0.4128; Log2(Fold Change) (ANXA1_HUMAN): -1.116; Log2(Fold Change) (APEX1_HUMAN): 0.3544; Log2(Fold Change) (ARP3_HUMAN;ARP3B_HUMAN;ARP3C_HUMAN): 0.7666; Log2(Fold Change) (AT1A1_HUMAN;AT1A2_HUMAN;AT1A4_HUMAN;ATP4A_HUMAN;AT12A_HUMAN): 0.2874; Log2(Fold Change) (ATP5H_HUMAN): 0.2249; Log2(Fold Change) (ATPK_HUMAN): 0.3336; Log2(Fold Change) (ATPO_HUMAN): 1.122; Log2(Fold Change) (ATX10_HUMAN): 1.148; Log2(Fold Change) (BST2_HUMAN): 1.515; Log2(Fold Change) (BZW1_HUMAN): 1.5907; Log2(Fold Change) (C1TM_HUMAN): 0.2312; Log2(Fold Change) (CALL5_HUMAN): -0.3562; Log2(Fold Change) (CD20_HUMAN): 0.973; Log2(Fold Change) (CD38_HUMAN): 0.2424; Log2(Fold Change) (CLCA_HUMAN): 0.2558; Log2(Fold Change) (CLH1_HUMAN;CLH2_HUMAN): -0.3445; Log2(Fold Change) (COX2_HUMAN): 0.13; Log2(Fold Change) (CRERF_HUMAN): -0.08019; Log2(Fold Change) (DD19B_HUMAN;DD19A_HUMAN): 0.602; Log2(Fold Change) (DDX3X_HUMAN;DDX3Y_HUMAN;DDX4_HUMAN): 0.1847; Log2(Fold Change) (DNJC7_HUMAN): -0.02484; Log2(Fold Change) (DSC1_HUMAN): -0.8463; Log2(Fold Change) (EF1B_HUMAN): -0.1869; Log2(Fold Change) (EPIPL_HUMAN): -1.263; Log2(Fold Change) (FPPS_HUMAN): -0.1485; Log2(Fold Change) (GCR_HUMAN): -0.05313; Log2(Fold Change) (GLYM_HUMAN;GLYC_HUMAN): 0.5085; Log2(Fold Change) (GSDMA_HUMAN): -0.7475; Log2(Fold Change) (HMCS1_HUMAN): 0.08713; Log2(Fold Change) (HXK2_HUMAN;HXK3_HUMAN): 0.7187; Log2(Fold Change) (IF4A1_HUMAN): -0.255; Log2(Fold Change) (IF4A3_HUMAN): 1.002; Log2(Fold Change) (IF4H_HUMAN): 0.7933; Log2(Fold Change) (IGLL5_HUMAN;IGL1_HUMAN;IGLC1_HUMAN): -1.242; Log2(Fold Change) (LAPM5_HUMAN): 0.4417; Log2(Fold Change) (LAT1_HUMAN): -0.2915; Log2(Fold Change) (LMNA_HUMAN): 0.31; Log2(Fold Change) (MATR3_HUMAN): 0.6026; Log2(Fold Change) (MBB1A_HUMAN): 0.2625; Log2(Fold Change) (MCCA_HUMAN): -0.03232; Log2(Fold Change) (MIC19_HUMAN): -0.1615; Log2(Fold Change) (MP2K7_HUMAN): 1.332; Log2(Fold Change) (NCEH1_HUMAN): 0.9366; Log2(Fold Change) (NT5D1_HUMAN): 0.9214; Log2(Fold Change) (NUCL_HUMAN): 0.1005; Log2(Fold Change) (OTUB1_HUMAN): -0.08587; Log2(Fold Change) (P121C_HUMAN;P121A_HUMAN): 0.1409; Log2(Fold Change) (PARK7_HUMAN): 0.4175; Log2(Fold Change) (PCKGM_HUMAN): -0.3825; Log2(Fold Change) (PEBP1_HUMAN): 0.1182; Log2(Fold Change) (PEPL_HUMAN): -0.4806; Log2(Fold Change) (PFKAL_HUMAN): -0.8784; Log2(Fold Change) (PGK1_HUMAN;PGK2_HUMAN): 0.09163; Log2(Fold Change) (PIP_HUMAN): -1.053; Log2(Fold Change) (PLAK_HUMAN;CTNB1_HUMAN): -0.3765; Log2(Fold Change) (POF1B_HUMAN): -0.7349; Log2(Fold Change) (PSA3_HUMAN): 0.7265; Log2(Fold Change) (PSB8_HUMAN): 0.6836; Log2(Fold Change) (RAB1A_HUMAN;RAB1B_HUMAN;RAB1C_HUMAN): 0.7505; Log2(Fold Change) (RANG_HUMAN;IPKB_HUMAN): -0.3363; Log2(Fold Change) (RAP1B_HUMAN;RAP1A_HUMAN;RP1BL_HUMAN;RAB3D_HUMAN): -0.2646; Log2(Fold Change) (RFTN1_HUMAN): 0.04464; Log2(Fold Change) (RL13A_HUMAN;R13P3_HUMAN): 0.8429; Log2(Fold Change) (RL18_HUMAN): 0.1972; Log2(Fold Change) (RLA1_HUMAN): -0.4322; Log2(Fold Change) (RN3P2_HUMAN): -0.1916; Log2(Fold Change) (RS28_HUMAN): 1.548; Log2(Fold Change) (RTN4_HUMAN): 0.4072; Log2(Fold Change) (RUVB2_HUMAN): 0.8939; Log2(Fold Change) (S38A1_HUMAN): 1.036; Log2(Fold Change) (S61A1_HUMAN;S61A2_HUMAN): 1.044; Log2(Fold Change) (SAE2_HUMAN): 0.8904; Log2(Fold Change) (SATT_HUMAN): 0.02917; Log2(Fold Change) (SCRB1_HUMAN): 0.4543; Log2(Fold Change) (SIAT1_HUMAN): 1.583; Log2(Fold Change) (SO4A1_HUMAN): 1.603; Log2(Fold Change) (SPB4_HUMAN): 1.011; Log2(Fold Change) (SPB12_HUMAN): 0.1706; Log2(Fold Change) (SSDH_HUMAN): 0.9154; Log2(Fold Change) (SUCB1_HUMAN): 0.5342; Log2(Fold Change) (TAP1_HUMAN): -1.372; Log2(Fold Change) (TAP2_HUMAN;ABCB8_HUMAN;ABCBA_HUMAN): -0.08664; Log2(Fold Change) (TBB2B_HUMAN;TBB2A_HUMAN): -0.7631; Log2(Fold Change) (TSN_HUMAN): 0.3727; Log2(Fold Change) (TX264_HUMAN): 0.3312; Log2(Fold Change) (UB2V2_HUMAN;UB2V1_HUMAN): 1.079; Log2(Fold Change) (UBP5_HUMAN): -0.3855; Log2(Fold Change) (UBP14_HUMAN): 1.084; Log2(Fold Change) (URP2_HUMAN): 1.649; Log2(Fold Change) (USMG5_HUMAN): 0.5625; Log2(Fold Change) (VDAC1_HUMAN): 0.3406; Log2(Fold Change) (VEZA_HUMAN): 1.904; Log2(Fold Change) (XPO2_HUMAN): 0.4199; Log2(Fold Change) (XPO5_HUMAN): -0.04737; Log2(Fold Change) (ZDHC8_HUMAN): -1.5861
